Usually IC50 stands for the midpoint of a concentration-inhibition curve.

Calls of active or inactive are those of the source. The rule behind the calls is not given here.

In ChEMBL document CHEMBL1152142, “Validation of high-affinity binding sites for succinic acid through distinguishable binding of gamma-hydroxybutyric acid receptor-specific NCS 382 antipodes” (Bioorg Med Chem Lett, 2008) one finds IC50 and Activity data, which are given here for 8 molecules.

In assay [1] the target is Calcium/calmodulin-dependent protein kinase type II subunit alpha (Rattus norvegicus, UniProt P11275). In words: Displacement of [3H]GHB from gamma-hydroxybutyrate binding site of gamma-hydroxybutyrate receptor in rat forebrain synaptic membranes. The class given is cell membranes, Membrane. A general note: In a radioligand displacement assay an active substance lowers the binding of a labelled ligand.
Chain of Calcium/calmodulin-dependent protein kinase type II subunit alpha (P11275 whole entry): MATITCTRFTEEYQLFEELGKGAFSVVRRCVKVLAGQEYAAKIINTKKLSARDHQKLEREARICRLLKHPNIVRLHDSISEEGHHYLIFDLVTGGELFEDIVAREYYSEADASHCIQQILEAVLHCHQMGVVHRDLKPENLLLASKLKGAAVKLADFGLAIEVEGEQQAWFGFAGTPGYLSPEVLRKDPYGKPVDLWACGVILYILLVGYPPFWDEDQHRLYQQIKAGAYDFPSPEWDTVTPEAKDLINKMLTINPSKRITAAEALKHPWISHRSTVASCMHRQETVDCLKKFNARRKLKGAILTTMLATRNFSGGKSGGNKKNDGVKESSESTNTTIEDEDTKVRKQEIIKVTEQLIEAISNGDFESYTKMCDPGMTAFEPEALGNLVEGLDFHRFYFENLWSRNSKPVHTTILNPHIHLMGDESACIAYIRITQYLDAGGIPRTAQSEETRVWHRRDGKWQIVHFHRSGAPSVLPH

For assay [2], the target named is T1, Gamma-hydroxybutyrate receptor (Rattus norvegicus, UniProt Q6RY99).
T1 sequence (Q6RY99 whole entry): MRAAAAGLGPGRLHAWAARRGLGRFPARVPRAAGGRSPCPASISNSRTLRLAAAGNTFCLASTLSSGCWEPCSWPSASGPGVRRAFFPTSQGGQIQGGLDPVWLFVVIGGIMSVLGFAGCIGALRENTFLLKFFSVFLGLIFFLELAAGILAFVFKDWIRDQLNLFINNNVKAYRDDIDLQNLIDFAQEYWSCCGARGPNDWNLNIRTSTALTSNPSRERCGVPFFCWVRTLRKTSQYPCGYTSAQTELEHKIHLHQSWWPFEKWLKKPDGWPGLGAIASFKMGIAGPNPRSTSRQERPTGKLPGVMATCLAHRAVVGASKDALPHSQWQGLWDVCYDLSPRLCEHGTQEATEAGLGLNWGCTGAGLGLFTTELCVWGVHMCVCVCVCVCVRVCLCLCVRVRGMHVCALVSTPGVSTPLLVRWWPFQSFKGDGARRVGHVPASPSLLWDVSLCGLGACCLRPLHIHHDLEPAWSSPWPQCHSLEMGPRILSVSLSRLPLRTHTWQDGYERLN
In words: Displacement of [3H]SUC from succinic acid binding site of gamma-hydroxybutyrate receptor in rat forebrain synaptic membranes.

Assay [3] concerns the target T2, Gamma-hydroxybutyrate receptor (Rattus norvegicus) (UniProt Q6RY99).
T2 sequence (whole entry): T1 sequence (Q6RY99 whole entry)
In words: Binding affinity to gamma-hydroxybutyrate binding site of gamma-hydroxybutyrate receptor in rat forebrain synaptic membranes at 100 uM. The class given is cell membranes. The note with it: Membrane.

Assay [4] concerns the target T2, Gamma-hydroxybutyrate receptor (Rattus norvegicus). Nature of the assay: Binding affinity to succinic acid binding site of gamma-hydroxybutyrate receptor in rat forebrain synaptic membranes at 100 uM. Format: cell membranes. As to conditions: Membrane.

Regarding `O=C(O)/C=C1\CCCc2ccccc2[C@H]1O`, the IC50 in assay [1] stood at 93 µM; in assay [2], 74 µM.

Regarding `O=C(O)/C=C1\CCCc2ccccc2C1O` (racemic), the values for the half-inhibitory concentration (IC50) in assay [1] and in assay [2] were 0.9 µM and 0.5 µM, respectively.

Regarding `O=C(O)[C@@H]1C[C@H](O)CCN1`, the outcome in assay [3] and in assay [4] was inactive.

Turning to `O=C(O)[C@H]1C[C@@H](O)CCN1`, the Activity in assay [3] is 30%; in assay [4] it was 26%.

As to `COC(=O)[C@H]1C[C@H](O)CCN1`, the result in assay [3] and in assay [4] was inactive.

As to `O=C(O)/C=C1\CCCc2ccccc2[C@@H]1O`, the figures for the 50% inhibitory concentration (IC50) in assay [1] and in assay [2] were 0.8 µM and 0.4 µM, respectively.

With `COC(=O)[C@@H]1C[C@H](O)CCN1`, the result in assay [3] and in assay [4] was inactive.

As to `O=C(O)[C@H]1C[C@H](O)CCN1`, the outcome in assay [3] and in assay [4] was inactive.
